According to US20220265775A1, “COMPOSITIONS AND METHODS FOR TREATING PULMONARY EDEMA OR LUNG INFLAMMATION” (priority 2019, published 2022):

Experiments:
[1] = tested on: hyperoxia-induced lung injury; experiment: Lung lavage (BAL) analyses in hyperoxia-exposed rats: protein concentration and cell counts; type: in vivo, Sprague Dawley rats
Description: (§1) All experimental protocols for animal treatments were approved by the University of Minnesota Institutional Animal Care and Use Committee. […] The room-air control rats were kept in the University animal housing facility. At the end of hyperoxic exposure, rats were sacrificed by intraperitoneal pentobarbital injection, and the lungs were harvested; the right lobes were allocated for histopathology, measurement of lung tissue myeloperoxidase (MPO) activity and wet-to-dry weight ratio. The left lobes underwent bronchoalveolar lavage (BAL) to determine BAL protein concentrations and differential cell counts.
Bronchoalveolar lavage (BAL) of the left lung was performed using a modification of a method previously described (Pace et al., Exp Lung Res 35:380-398, 2009). Briefly, 4 mls of ice-chilled 1×PBS (pH 7.4) were instilled into the left lung, withdrawn, and re-instilled two subsequent times prior to analysis of the lavage fluid. The retrieved BAL fluid was centrifuged at 1500 rpm for 10 minutes to remove cells and debris. The cell pellet was resuspended in 1 ml of 1×PBS (pH 7.4) and total cell number was counted using a hemocytometer. BAL cytospin preparations were stained using the Hema3 stain kit (Thermo Fisher Scientific, Inc., Waltham, Mass.) to identify the nucleated cells. The protein concentration was determined on the supernatants of BAL fluid using a standard BCA assay (Sigma-Aldrich, St. Louis, Mo.).

[2] = Single dose toxicokinetic (TK) study, intratracheal instillation of T3, serum total T3 by chemiluminescence assay; parameters: species or system Sprague-Dawley rats; conditions: Sprague-Dawley, rat; for AUC(0-t) / Cmax / Cmax_D / Tmax / Vz_F_obs: inhaled or intranasal
Protocol: Sixty animals (plus two spare animals/sex/group) were anesthetized and dosed via intratracheal instillation of test or control materials for five consecutive days. On the day after the last dose a terminal blood collection was performed for clinical pathology, after which animals were euthanized and a gross examination of all organs was performed by a board certified veterinary pathologist. Select tissues were collected for histopathology. […] Terminal blood collection was performed at two designated time points per animal up to 24 hours after administration for toxicokinetic evaluation. TK animals were euthanized without further evaluation after the final blood collection. All animals were acclimated for a minimum of seven days prior to the dosing procedure. Animals underwent baseline observations and examinations prior to the initiation of the study, and clinical observations and body weight monitoring were performed throughout the in-life portion of the study. All animals received the same dose volume (0.3 mL) of either test or control materials. This maximum feasible dose (MFD) is constrained by the maximum volume that can be safely and reproducibly (over five days) instilled into lungs of rats weighing 250 g to 350 g, which was determined in preliminary toxicology studies to be 0.3 mL. Actual doses delivered are reported as both μg/kg body weight and μg/gm wet lung weight. The toxicity phase animals were 72-135 days of age at the time of initial dosing. Males weighed between 256.52 g and 307.50 g with a mean±standard deviation of 286.74±11.77 g, and females weighed between 250.46 g and 299.01 g with a mean±standard deviation of 260.64±10.34 g. The TK phase animals were 68-144 days of age at the time of initial dosing. Males weighed between 261.23 g and 316.19 g; females weighed between 250.06 g and 280.32 g.
For toxicokinetic experiments, rats were anesthetized with combination of ketamine 40 mg/kg to 200 mg/kg and xylazine 1 mg/kg to 7 mg/kg, intraperitoneally (IP), to effect for dosing procedures, and dosed intratracheally with liothyronine sodium injection as previously described. Depending on the duration of time between dosing and the first or second blood collection time points, animals either had blood collected while still anesthetized under the injectable anesthetics, or if recovered, they were anesthetized with Isoflurane 2-5% and oxygen 1-1.5 L/minute by inhalation anesthesia via nose cone, as needed, to maintain adequate anesthesia depth (assessed by toe pinch). Topical proparicaine anesthetic ophthalmic solution was applied to each eye prior to performing the first blood collection and allowed time to take effect. Collection of serum samples for TK analysis was as described for serum chemistry samples above, and samples were stored at ≤−70° C. until assayed. Animals were euthanized with EUTHASOL (Virbac Corp., Fort Worth, Tex.) ≥86 mg/kg IP to effect following the final blood collection.
For assessment of serum T3 levels samples were sent to the Fairview University of Minnesota Medical Center East Bank Diagnostic Laboratory for analysis, a clinical laboratory certified by CLIA and CAP. Prior to sending serum samples to the analytical lab each sample was diluted 1:4 or 1:8 in normal (0.9%) saline. […] Samples were analyzed by a chemiluminescence assay for total triiodothyronine (T3).
An evaluation of the TK analysis was performed by Dick Brundage, PhD, University of Minnesota. Toxicokinetic parameters were estimated using Phoenix 64 WinNonlin pharmacokinetic software version 7.0. (Pharsight Corp., Mountain View, Calif.). A non-compartmental (NCA) approach consistent with the route of administration was used for parameter estimation. […] Whenever possible, mean concentrations were derived from three animals/gender/time point. Parameters were estimated using sampling times relative to the start of each dose administration. […]

[3] = Serum total T3 measurement (RIA) in hyperoxia-exposed rats; type: in vivo, Sprague Dawley rats; conditions: rats exposed to 95% oxygen for 60 hours, intraperitoneal T3 supplementation 50 μg/kg bodyweight/24 hours, vs hyperoxia alone
Protocol: FIG. 13. […] Rats were exposed to ˜ 95% of oxygen for 60 hours. […] RA: room air control.
as §1
Blood samples were collected at the end of 60 hours of hyperoxia and were centrifuged at 13,000 rpm for 30 minutes at 4° C. Supernatant was stored at −20° C.

[4] = tested on: hyperoxia-induced lung injury; experiment: Histopathological evaluation of lung sections of hyperoxia-exposed rats; type: in vivo, Sprague Dawley rats; conditions: 60 hours of hyperoxia, systemic T3 supplementation
Description: FIG. 18. […] (A) Control: room air; (B) Hyperoxia; (C) Hyperoxia+T3.
as §1
Lung tissue was removed and inflation fixed at 20 cm water pressure in 4% paraformaldehyde, paraffin embedded, cut as 5 micron sections and mounted onto poly-L-lysine slides. Sections were deparaffinized in xylene, rehydrated through a graded alcohol series in methanol, and placed in a 98° C. water bath for 30 minutes in citrate buffer (pH 6.0) for antigen retrieval. After quenching with 0.3% hydrogen peroxide in PBS, sections were incubated in normal serum for 30 minutes and for 15 minutes each with Avidin/Biotin Blocking Kit (Vector Laboratories, Inc., Burlingame, Calif.). […]

N[C@@H](Cc1cc(I)c(Oc2ccc(O)c(I)c2)c(I)c1)C(=O)O [T3, triiodothyronine]
neutrophils among BALF cells ([1]; rats after hyperoxia with T3 treatment (data not shown)): relatively few of the BALF cells after hyperoxia were neutrophils | BALF cell numbers ([1]; rats, 95% oxygen, 48 hours and 60 hours, T3 administration vs hyperoxia alone): significantly reduced the BALF cell numbers | BALF protein concentration ([1]; rats, hyperoxia, 48 hour and 60 hour time points, T3 administration vs hyperoxia alone): attenuated significantly the hyperoxic increases | concentration at 15 min ([2]; in vivo, male rats, individual animals, 15 min, single intratracheal dose 2.7 μg (~10.0 μg/kg)): 2.44 ng/mL | Cl_F_obs ([2]; female): 30.10 mL/h | HL_Lambda_z ([2]; female): 2.85 h | AUC(0-t) ([2]; female): 64.1 ng·h/mL | Cmax ([2]; female): 16.5 ng/mL | Cmax_D ([2]; female): 6.12 ng/mL/µg | Tmax ([2]; female): 2 h | Vz_F_obs ([2]; female): 123.60 mL | Cl_F_obs ([2]; male): 74.29 mL/h | HL_Lambda_z ([2]; male): 3.17 h | AUC(0-t) ([2]; male): 25.4 ng·h/mL | Cmax ([2]; male): 6.6 ng/mL | Cmax_D ([2]; male): 2.44 ng/mL/µg | Tmax ([2]; male): 1 h | Vz_F_obs ([2]; male): 339.44 mL | serum total T3 level [3]: augmented serum total T3 | lung morphology (histopathology) [4]: persistence of virtually normal lung morphology
